In brackets after ≈: the same amount, converted by molar mass.
Legend:
[1] = tested on: HCT-116 human colorectal carcinoma cell line; experiment: sulforhodamine B anti-proliferative assay, HCT-116; assay type: cell-based; details: HCT-116, 48 hours incubation, SRB; for IC50: Homo sapiens, read-out: Anti-proliferative activity, IC50 (concentration required to inhibit cell growth by 50%)
Method: (§1) Human colorectal carcinoma HCT-116 and HT-29 cells are routinely maintained in McCoy's 5A medium (Gibco) whereas human melanoma A375 cells and human pancreatic adenocarcinoma PANC-1 cells are cultured in DMEM (Gibco) supplemented with 10% fetal bovine serum (Gibco), 1% penicillin-streptomycin (Gibco) in a 5% CO2, 95% air humidified atmosphere at 37° C.
(§2) For the sulforhodamine B assay, different carcinoma cells were seeded in 96-well plates at a density of 5×10^3 cells/well and incubated with serial dilutions of ent-kaurene diterpenoids FA, FA1, FA2, FA3, FA4 or PA for 48 hours. After incubation, cells were treated with 50% trichloroacetic acid at 4° C. for at least 30 minutes for protein fixing. Cells were then washed with water 4 times prior to a complete dry down of the culture plate. To each well, 100 μL of 0.4% sulforhodamine B in 1% acetic acid was added. After 30-minute incubation at room temperature, cells were washed with 1% acetic acid 4 times. Fixed proteins were fully solubilized with 10 mM Tris base solution (pH 10, 200 μL/well). Spectrophotometric absorbance of samples were measured at 515 nm using a microplate reader (Bio-rad).

[2] = tested on: A375 human melanoma cell line; experiment: sulforhodamine B anti-proliferative assay, A375; assay type: cell-based; details: A375, 48 hours incubation, SRB; for IC50: Homo sapiens, A-375, read-out: Anti-proliferative activity, IC50 (concentration required to inhibit cell growth by 50%)
Method: as §1, §2

[3] = tested on: HT-29 human colorectal carcinoma cell line; experiment: sulforhodamine B anti-proliferative assay, HT-29; assay type: cell-based; details: HT-29, 48 hours incubation, SRB; for IC50: Homo sapiens, read-out: Anti-proliferative activity, IC50 (concentration required to inhibit cell growth by 50%)
Method: as §1, §2

[4] = tested on: PANC-1 human pancreatic ductal adenocarcinoma cell line; experiment: sulforhodamine B anti-proliferative assay, PANC-1; assay type: cell-based; details: PANC-1, 48 hours incubation, SRB; for IC50: Homo sapiens, read-out: Anti-proliferative activity, IC50 (concentration required to inhibit cell growth by 50%)
Method: as §1, §2

[5] = tested on: HCT-116 cells; experiment: flow cytometric annexin V-FITC/propidium iodide apoptosis assay; assay type: cell-based, human; details: HCT-116, 0.25, 0.5 and 1.0 μg/mL for 48 hours, concentration-dependent (FIG. 2)
Method: From the flow cytometric analysis, the staining percentage of annexin V/FITC and propidium iodide (PI) is detected as percentage at Q1: necrosis (upper left quarter); Q2: late apoptosis (upper right quarter); Q3: live (lower left quarter); Q4: early apoptosis (lower right quarter).
For the flow cytometric assay, HCT-116 cells were seeded in 6-well plates at a density of 1×10^5 cells/well and incubated with serial dilutions of FA3 for 48 hours. Cells were collected by centrifugation, re-suspended in 500 μL of binding buffer containing 5 μL of propidium iodide and 5 μL of annexin V-FITC, and incubated for 15 minutes in dark. Signals of the cell suspension were then analyzed using a flow cytometer (BD) for apoptotic events.

[6] = tested on: HCT-116 colon carcinoma cell-bearing nude mice; experiment: HCT-116 xenograft experiment in nude mice; assay type: in vivo, male BALB/c nude mice; details: for growth of xenograft tumor in terms of volume: 20 mg/kg i.p. every other day for 21 days, compared to paclitaxel 10 mg/kg (FIG. 4, FIG. 6)
Method: For the xenograft experiment, HCT-116 cells were implanted subcutaneously in the right and left flanks (1×10^6 cells in 100 μL) of male BALB/c nude mice (n=10/group), which were SPF class and aged 6-7 weeks old weighing between 20 g-25 g. Tumor size was monitored by measuring two perpendicular diameters with a caliper every other day. When tumors were formed to approximately 100 mm^3 seven days after the injection of HCT-116 cells, FA3 or PA was administered (20 mg/kg, every other day by intraperitoneal injection for a total of 21 days). To the paclitaxel group, injection of paclitaxel was given at 10 mg/kg to the nude mice whilst the vehicle group merely received the 2.5% EtOH and Cremphor EL solution, which was the dissolving solution for FA3, PA and paclitaxel. Tumor volume and body weight of mice were recorded at indicated time points during the course of experiment. Tumor volume was calculated as volume=length×width^2×0.5. Weight of tumor xenograft was assessed at the time of sacrificed.
The data are presented as mean±standard error of the mean (S.E.M.). Statistical differences among the experimental groups were tested by one-way analysis of variance (ANOVA). P-value<0.05 was considered as statistically significant.

Row | SMILES | IC50 [1] [µg/mL] | IC50 [2] [µg/mL] | IC50 [3] [µg/mL] | IC50 [4] [µg/mL] | Anti-proliferative activity, IC50 (concentration required to inhibit cell growth by 50%) [1] [µg/mL] | Anti-proliferative activity, IC50 (concentration required to inhibit cell growth by 50%) [2] [µg/mL] | Anti-proliferative activity, IC50 (concentration required to inhibit cell growth by 50%) [3] [µg/mL] | Anti-proliferative activity, IC50 (concentration required to inhibit cell growth by 50%) [4] [µg/mL] | degree of apoptosis [5] | growth of xenograft tumor in terms of volume [6] | growth of xenograft tumor in terms of weight ([6]; 20 mg/kg i.p. every other day, day 21, compared to paclitaxel 10 mg/kg (FIG. 3)) | change of body weight ([6]; 21-day administration, tumor-bearing nude mice (FIG. 5))
1 | C=C1C(=O)[C@@]23[C@@H]4OC(C)(C)O[C@@H]2C[C@@H]2C(C)(C)CCC[C@@]2(COC(C)=O)[C@@H]3C(=O)C[C@@H]14 [FA2] | > 2 | > 2 | > 2 | > 2 |  |  |  |  |  |  |  | 
2 | C=C1C(=O)[C@@]23[C@H](O)C[C@@H]4C(C)(C)CCC[C@@]4(COC(C)=O)[C@@H]2C(=O)C[C@@H]1[C@H]3O [FA3] | 0.274 (≈ 0.701 µM) | 0.668 (≈ 1.71 µM) | 0.424 (≈ 1.09 µM) | 0.413 (≈ 1.06 µM) |  |  |  |  | Substantial increase in the degree of apoptosis | more sufficiently restrained | more sufficiently restrained | does not lead to a significant loss of body weight

Further lines, with some results ahead:

Row | IC50 [1] [µg/mL] | IC50 [2] [µg/mL] | IC50 [3] [µg/mL] | IC50 [4] [µg/mL] | Anti-proliferative activity, IC50 (concentration required to inhibit cell growth by 50%) [1] [µg/mL] | Anti-proliferative activity, IC50 (concentration required to inhibit cell growth by 50%) [2] [µg/mL] | Anti-proliferative activity, IC50 (concentration required to inhibit cell growth by 50%) [3] [µg/mL] | Anti-proliferative activity, IC50 (concentration required to inhibit cell growth by 50%) [4] [µg/mL] | SMILES | degree of apoptosis [5] | growth of xenograft tumor in terms of volume [6] | growth of xenograft tumor in terms of weight ([6]; 20 mg/kg i.p. every other day, day 21, compared to paclitaxel 10 mg/kg (FIG. 3)) | change of body weight ([6]; 21-day administration, tumor-bearing nude mice (FIG. 5))
3 | 0.98 (≈ 2.52 µM) | > 2 | > 2 | > 2 |  |  |  |  | C=C1C(=O)[C@@]23[C@@H]4OC(C)(C)O[C@@H]2C[C@@H]2C(C)(C)CCC[C@]25CO[C@](O)(C[C@@H]14)[C@@H]53 [FA4] |  |  |  | 
4 |  |  |  |  | 0.7215 | 1.624 | 0.9732 | 1.024 | C=C1C(=O)[C@@]23C(O)C[C@@H]4C(C)(C)CCCC4(COC(C)=O)[C@@H]2[C@@H](O)C[C@@H]1[C@H]3O (stereo partly shown) [FA, flexicaulin A, reference compound] |  |  |  | 
5 |  |  |  |  | 0.2702 | 0.8737 | 0.4194 | 0.4396 | C=C1C(=O)[C@]23[C@H](O)C[C@@H]4C(C)(C)CCC[C@]45CO[C@](O)(C[C@@H]1[C@H]2O)[C@@H]53 [PA, pseudoirroratin A, reference compound] |  | not as efficient as paclitaxel |  | 

Source: patent publication US10493056B2, “Method of use of diterpenoid derivatives as anticancer agents” (Hong Kong Baptist University, priority 2016, dated 2019)
